Measurements from patent US6534546B1 (Chugai Seiyaku Kabushiki Kaisha, priority 1994, dated 2003).
Where two headings read alike, the source gives them in different places.

Assays:
iNOS = iNOS (Homo sapiens, UniProt P35228); settings: literature reports; cited from earlier work
iNOS (Type 2) = iNOS (Type 2) (Rattus norvegicus, UniProt Q06518); assay: biochemical; type: biochemical; settings: for IC50: mean of one to four independent experiments, crude enzyme, 100 nM L-[3H]arginine, without CaCl2 and calmodulin, read-out: IC50 value, iNOS (Type 2)
Sequence of iNOS (Type 2) (Q06518 whole entry, looked up): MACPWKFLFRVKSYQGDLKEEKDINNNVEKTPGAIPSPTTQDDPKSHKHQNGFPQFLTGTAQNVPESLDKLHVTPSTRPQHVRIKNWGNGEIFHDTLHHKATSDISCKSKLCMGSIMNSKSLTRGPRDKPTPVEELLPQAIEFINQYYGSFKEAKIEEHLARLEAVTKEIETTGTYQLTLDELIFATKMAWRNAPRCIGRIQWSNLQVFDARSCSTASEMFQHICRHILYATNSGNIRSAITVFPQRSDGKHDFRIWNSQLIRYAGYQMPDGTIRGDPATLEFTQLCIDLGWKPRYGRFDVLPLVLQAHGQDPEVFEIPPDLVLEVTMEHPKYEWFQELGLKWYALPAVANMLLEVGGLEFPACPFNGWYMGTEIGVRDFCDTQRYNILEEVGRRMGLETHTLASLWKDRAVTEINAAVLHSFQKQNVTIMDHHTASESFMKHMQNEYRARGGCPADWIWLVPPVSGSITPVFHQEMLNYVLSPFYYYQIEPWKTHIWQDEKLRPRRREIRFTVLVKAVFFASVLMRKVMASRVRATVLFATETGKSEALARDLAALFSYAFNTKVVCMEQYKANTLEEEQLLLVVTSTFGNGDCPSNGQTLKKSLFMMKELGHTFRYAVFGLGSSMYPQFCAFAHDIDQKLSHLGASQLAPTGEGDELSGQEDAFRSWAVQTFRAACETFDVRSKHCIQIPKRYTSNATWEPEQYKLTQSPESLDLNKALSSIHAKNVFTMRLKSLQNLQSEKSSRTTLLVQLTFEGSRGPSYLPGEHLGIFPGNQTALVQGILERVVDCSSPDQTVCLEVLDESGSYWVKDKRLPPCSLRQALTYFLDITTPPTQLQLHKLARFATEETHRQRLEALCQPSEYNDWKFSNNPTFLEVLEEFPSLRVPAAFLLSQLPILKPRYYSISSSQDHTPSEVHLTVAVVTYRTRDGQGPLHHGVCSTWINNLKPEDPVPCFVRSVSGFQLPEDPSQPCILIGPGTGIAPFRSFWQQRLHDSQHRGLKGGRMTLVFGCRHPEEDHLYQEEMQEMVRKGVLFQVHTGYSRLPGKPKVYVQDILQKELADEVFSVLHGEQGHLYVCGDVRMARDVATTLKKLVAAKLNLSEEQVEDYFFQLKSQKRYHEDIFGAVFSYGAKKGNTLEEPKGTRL

[1] = test system: rat model of focal cerebral ischemia (permanent MCA occlusion); assay: Brain edema (brain water content, dry-wet method) after 48-h occlusion of the left middle cerebral artery; type: in vivo; settings: 48 hours after MCA occlusion
Experimental: An experiment was conducted to evaluate the effectiveness of a compound within the scope of the invention using a rat model of focal cerebral ischemia. Such models were prepared by occluding the left middle cerebral artery (MCA) in accordance with the method already reported by the present inventors (Nagafuji et al., Neurosci. Lett. 147, 159-162, 1992; Nagafuji et al., in Brain Edema IX (Ito et al., eds.) 60, pp. 285-288, 1994, Springer-Verlag; Nagafuji et al., Neuroreport 6, 1541-1545, 1995). […]
The water content in the brain which was an index of brain edema formation was measured by the dry-wet method (Nagafuji et al., Neurosci. Lett. 147, 159-162, 1992) in the following manner. Forty-eight hours after the MCA occlusion, the rats were decapitated and both the right and left cerebral hemispheres were extracted from each animal within 60 seconds; the wet weight of the brain tissue of each hemisphere was measured with a chemical balance within 90 seconds. Thereafter, the hemispheres were dried in an oven at 105° C. for 3 days and their dry weights were measured. The water content in the brain was determined by the following forumula: (wet weight−dry weight)/(wet weight)×100 (%). […]

E-cNOS (Type 3) = biological target: T1, E-cNOS (Type 3) (Bos taurus, UniProt P29473); assay: biochemical; settings: mean of one to four independent experiments; crude enzyme, 100 nM L-[3H]arginine; read-out: IC50 value, E-cNOS (Type 3)
T1 construct: the resulting supernatant was used as the crude enzyme sample of E-cNOS; endogenous in cells; host or cells: CPAE (cow pulmonary arterial endothelium cells), 1% Triton X-100 extract, 100,000 x g supernatant
T1 sequence (P29473 2-1205): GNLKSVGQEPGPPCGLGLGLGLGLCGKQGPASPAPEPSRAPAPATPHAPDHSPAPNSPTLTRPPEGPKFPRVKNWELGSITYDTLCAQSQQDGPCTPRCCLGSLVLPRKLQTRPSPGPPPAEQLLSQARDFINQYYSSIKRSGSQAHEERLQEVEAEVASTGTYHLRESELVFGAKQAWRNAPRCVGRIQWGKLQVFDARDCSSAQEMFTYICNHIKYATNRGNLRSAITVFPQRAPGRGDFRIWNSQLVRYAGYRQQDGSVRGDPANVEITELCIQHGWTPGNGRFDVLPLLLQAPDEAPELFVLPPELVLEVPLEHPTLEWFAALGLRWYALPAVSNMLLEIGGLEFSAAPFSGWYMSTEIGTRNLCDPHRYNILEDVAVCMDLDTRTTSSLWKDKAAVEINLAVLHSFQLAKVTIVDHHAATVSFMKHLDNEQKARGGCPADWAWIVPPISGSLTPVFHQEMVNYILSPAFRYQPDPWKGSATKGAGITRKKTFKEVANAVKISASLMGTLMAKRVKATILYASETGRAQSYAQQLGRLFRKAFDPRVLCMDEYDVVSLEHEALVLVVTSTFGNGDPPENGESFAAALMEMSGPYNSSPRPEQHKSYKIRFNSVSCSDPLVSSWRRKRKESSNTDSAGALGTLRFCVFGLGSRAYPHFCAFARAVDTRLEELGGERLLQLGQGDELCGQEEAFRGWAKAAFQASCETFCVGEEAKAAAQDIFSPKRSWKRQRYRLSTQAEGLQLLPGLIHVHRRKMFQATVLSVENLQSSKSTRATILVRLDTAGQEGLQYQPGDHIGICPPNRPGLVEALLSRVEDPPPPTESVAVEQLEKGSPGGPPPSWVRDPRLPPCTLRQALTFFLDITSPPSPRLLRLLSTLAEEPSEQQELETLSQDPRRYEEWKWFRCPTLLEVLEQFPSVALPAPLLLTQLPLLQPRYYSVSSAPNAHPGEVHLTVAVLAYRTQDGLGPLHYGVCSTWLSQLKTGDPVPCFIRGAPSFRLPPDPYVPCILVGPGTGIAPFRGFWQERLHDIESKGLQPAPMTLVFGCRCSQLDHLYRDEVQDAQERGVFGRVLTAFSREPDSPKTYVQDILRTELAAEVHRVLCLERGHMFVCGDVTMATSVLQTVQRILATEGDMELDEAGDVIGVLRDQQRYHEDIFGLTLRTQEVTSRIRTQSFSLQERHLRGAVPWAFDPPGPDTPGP
Experimental: The crude enzyme sample of E-cNOS was prepared by the following procedure. A cow pulmonary arterial endothielium cell (CPAE) was cultured in a MEM medium containing 20% FBS. […] A suitable amount of Ca- and Mg-free phosphate buffer (pH 7.4) was added to the precipitating cells and they were centrifuged at 1,000 rpm for 10 min. The same step was repeated to wash the cells which, upon addition of 50 mM Tris-HCl (pH 7.4) containing 1% Triton X-100 and 1 mM DTT, were left to stand in ice for 1 h. Subsequently, the mixture was homogenized for 3 min and kept in ice for 30 min with occasional stirring. Finally, the mixture was centrifuged at 100,000×g for 60 min and the resulting supernatant was used as the crude enzyme sample of E-cNOS.
The reaction was started by addition of L-[^3H]arginine and following incubation at 37° C. for 10 min, the reaction was terminated by addition of 2 ml of 50 mM Tris-HCl (pH 5.5) containing 1 mM EDTA and placing the mixture on ice. The reaction solution was passed through a cation-exchange resin column (Dowex AG50WX-8, Na^+ form, 3.2 ml) to separate the reaction product L-[^3H]citrulline from the unreacted residual substrate L-[^3H]arginine. The eluate was combined with another eluate resulting from the passage of a given amount of distilled water through the column and put into a minivial for recovery of L-[^3H]citrulline. Thereafter, a scintillation fluid was added and the contained radioactivity was measured with a liquid scintillation counter to determine the amount of L-[^3H]citrulline.
The activity of N-cNOS or E-cNOS was determined by subtracting the activity as detected in the absence of CaCl2 and calmodulin from the activity as detected in the presence of CaCl2 and calmodulin. […] The protein concentration of each crude enzyme sample was determined with a micro-assay kit of Biorad Co. Each experiment was conducted in a duplicate.

[2] = test system: rat model of focal cerebral ischemia (temporary MCA occlusion); assay: Brain infarct volume (TTC staining) after 3-h MCA occlusion and 24-h reperfusion; type: in vivo
N-cNOS = N-cNOS (Homo sapiens, UniProt P29475); settings: literature reports; cited from earlier work
Sequence of N-cNOS (P29475 whole entry): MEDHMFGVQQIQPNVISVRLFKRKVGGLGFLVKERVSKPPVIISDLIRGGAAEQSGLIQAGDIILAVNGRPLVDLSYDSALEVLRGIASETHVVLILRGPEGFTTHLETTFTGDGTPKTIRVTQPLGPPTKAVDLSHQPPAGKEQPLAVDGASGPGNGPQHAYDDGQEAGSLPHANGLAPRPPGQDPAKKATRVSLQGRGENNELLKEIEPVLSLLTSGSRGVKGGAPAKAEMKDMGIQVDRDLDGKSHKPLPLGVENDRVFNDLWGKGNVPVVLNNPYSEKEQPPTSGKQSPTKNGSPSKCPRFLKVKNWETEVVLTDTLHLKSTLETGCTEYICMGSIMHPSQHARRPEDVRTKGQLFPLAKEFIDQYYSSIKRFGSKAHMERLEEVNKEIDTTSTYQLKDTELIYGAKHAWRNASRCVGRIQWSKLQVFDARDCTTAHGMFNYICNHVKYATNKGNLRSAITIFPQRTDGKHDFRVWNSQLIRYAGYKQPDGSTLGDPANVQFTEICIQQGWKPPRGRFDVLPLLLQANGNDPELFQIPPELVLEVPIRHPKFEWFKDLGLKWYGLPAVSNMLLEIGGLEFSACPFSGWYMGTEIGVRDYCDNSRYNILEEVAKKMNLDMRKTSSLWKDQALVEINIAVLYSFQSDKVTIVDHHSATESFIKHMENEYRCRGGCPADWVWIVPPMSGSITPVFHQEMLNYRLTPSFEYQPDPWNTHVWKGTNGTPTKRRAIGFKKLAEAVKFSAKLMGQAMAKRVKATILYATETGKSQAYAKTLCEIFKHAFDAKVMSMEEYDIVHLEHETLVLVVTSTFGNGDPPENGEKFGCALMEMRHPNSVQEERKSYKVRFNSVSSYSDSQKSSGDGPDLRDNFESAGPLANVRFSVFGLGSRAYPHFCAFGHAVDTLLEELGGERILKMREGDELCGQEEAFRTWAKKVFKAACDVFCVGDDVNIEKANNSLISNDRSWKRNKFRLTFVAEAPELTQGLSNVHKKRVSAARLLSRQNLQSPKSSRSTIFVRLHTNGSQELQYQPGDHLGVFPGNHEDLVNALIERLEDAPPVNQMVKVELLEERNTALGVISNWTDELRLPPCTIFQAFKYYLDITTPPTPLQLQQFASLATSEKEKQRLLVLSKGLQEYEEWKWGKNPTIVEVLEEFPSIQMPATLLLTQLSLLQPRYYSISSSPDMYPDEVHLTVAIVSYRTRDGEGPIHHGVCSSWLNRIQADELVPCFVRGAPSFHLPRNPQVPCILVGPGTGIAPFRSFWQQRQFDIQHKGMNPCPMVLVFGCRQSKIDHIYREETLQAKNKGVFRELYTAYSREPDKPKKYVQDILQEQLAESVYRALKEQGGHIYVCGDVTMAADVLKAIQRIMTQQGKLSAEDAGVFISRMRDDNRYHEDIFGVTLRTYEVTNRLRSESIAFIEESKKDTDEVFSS

[3] = test system: focal cerebral ischemia in rats; settings: administered after 3 hours of ischemia; Zhang et al. 1995; cited from earlier work
[4] = test system: rat model of focal cerebral ischemia; settings: Nagafuji et al. 1992; cited from earlier work
[5] = test system: gerbil model of forebrain ischemia; settings: Nagafuji et al. 1993; cited from earlier work
[6] = conclusion from Tables 49, 50 and 51

Sequence of iNOS (P35228 whole entry): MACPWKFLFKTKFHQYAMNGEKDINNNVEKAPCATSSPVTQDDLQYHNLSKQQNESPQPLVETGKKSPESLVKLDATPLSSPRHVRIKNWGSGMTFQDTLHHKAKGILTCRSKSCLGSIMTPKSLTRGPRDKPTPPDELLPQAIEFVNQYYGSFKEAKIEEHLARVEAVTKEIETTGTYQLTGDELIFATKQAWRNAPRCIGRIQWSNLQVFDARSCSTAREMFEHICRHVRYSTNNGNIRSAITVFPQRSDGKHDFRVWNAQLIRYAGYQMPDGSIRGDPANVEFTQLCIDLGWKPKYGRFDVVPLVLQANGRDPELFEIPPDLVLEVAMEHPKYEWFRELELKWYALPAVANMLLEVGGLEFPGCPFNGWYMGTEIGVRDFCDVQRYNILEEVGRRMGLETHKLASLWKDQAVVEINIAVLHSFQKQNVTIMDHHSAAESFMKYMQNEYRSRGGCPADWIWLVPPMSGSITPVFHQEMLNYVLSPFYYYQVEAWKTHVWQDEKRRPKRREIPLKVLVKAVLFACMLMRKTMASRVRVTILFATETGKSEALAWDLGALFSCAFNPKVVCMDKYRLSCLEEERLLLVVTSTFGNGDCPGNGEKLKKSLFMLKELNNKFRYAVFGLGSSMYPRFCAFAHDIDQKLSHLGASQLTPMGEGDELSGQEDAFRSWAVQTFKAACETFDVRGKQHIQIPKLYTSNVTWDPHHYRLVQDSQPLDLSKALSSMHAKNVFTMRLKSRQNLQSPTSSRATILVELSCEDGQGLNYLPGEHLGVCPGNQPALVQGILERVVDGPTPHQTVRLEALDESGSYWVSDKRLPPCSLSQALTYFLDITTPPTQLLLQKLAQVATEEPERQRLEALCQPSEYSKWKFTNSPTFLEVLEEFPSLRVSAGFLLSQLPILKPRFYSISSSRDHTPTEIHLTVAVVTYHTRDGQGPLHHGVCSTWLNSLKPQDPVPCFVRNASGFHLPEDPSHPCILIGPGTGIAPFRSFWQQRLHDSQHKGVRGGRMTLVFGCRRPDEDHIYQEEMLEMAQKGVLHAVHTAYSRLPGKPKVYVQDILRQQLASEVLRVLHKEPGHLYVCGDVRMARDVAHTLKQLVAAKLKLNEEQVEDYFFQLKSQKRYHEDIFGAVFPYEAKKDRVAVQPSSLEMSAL

N=C(N)NN [AG, aminoguanidine]
reported selectivity for iNOS (iNOS): selectivity for iNOS

CCSC(=N)Nc1cccc(C(C)(C)N)c1.Cl.Cl [Example 96, N-(1-methyl-1-(3-(S-ethylisothioureido)phenyl)ethyl)amine dihydrochloride]
iNOS inhibitory potency compared with the existing NOS inhibitors (L-MIN) (iNOS (Type 2); [6]): more potent in inhibiting iNOS than L-MIN | selectivity for iNOS compared to E-cNOS, compared with the existing NOS inhibitors (L-NIO) (iNOS (Type 2); [6]): more selective inhibitory effect on iNOS than L-NIO | Ratio of IC50 values E-cNOS/iNOS (iNOS (Type 2); index of selectivity): 6.9 | IC50 (iNOS (Type 2)): 0.0286 µM | increase in the percentage of the water content (brain edema), dose dependence ([1]; bolus 0.12-3.6 μg/kg then infusion 0.01-0.3 μg/kg/min): reduced in a dose-dependent manner | percentage of the water content in the stroke hemisphere to the contralateral hemisphere ([1]; sustained infusion 0.3 μg/kg/min following intravenous bolus 3.6 μg/kg, p<0.01, control group about 103.8%): about 102.1% | IC50 (E-cNOS (Type 3)): 0.198 µM | infarction, dose dependence ([2]; 3-h MCA occlusion and 24-h reperfusion, bolus 0.12-3.6 μg/kg then infusion 0.01-0.3 μg/kg/min): ameliorated in a dose-dependent manner | decrease of infarct volume ([2]; rat, in vivo, iv): about 79.7%

CSC(=N)NCCC[C@H](N)C(=O)O [L-MIN, S-methyl-L-thiocitrulline, reference compound]
Ratio of IC50 values E-cNOS/iNOS (iNOS (Type 2)): 0.6 | iNOS inhibitory potency compared with the existing NOS inhibitors (L-MIN) (iNOS (Type 2); [6]): the strongest iNOS inhibitory activity in the existing NOS inhibitors | IC50 (iNOS (Type 2)): 0.248 µM | IC50 (E-cNOS (Type 3)): 0.152 µM | reported selectivity for N-cNOS (N-cNOS): selectivity for N-cNOS

COC(=O)[C@@H](N)CCCNC(=N)N[N+](=O)[O-] [L-NAME, N^G-nitro-L-arginine methyl ester, reference compound]
infarct volume [3]: decreased significantly | IC50 (E-cNOS (Type 3)): 0.923 µM

N=C(NCCC[C@H](N)C(=O)O)N[N+](=O)[O-] [L-NNA, N^G-nitro-L-arginine]
effects against brain edema and infarction [4]: ameliorative effects | effects against neuronal cell death [5]: ameliorative effects
